Measurements as given in patent US11975003B2, “Methods and compositions for treatment of Zika virus infection” (priority 2016, dated 2024).

System: Zika virus (Malaysia, strain P 6-740)
Assay: Murine Zika virus model, treatment begun 4 h before infection (Example 3)
Details: for relative virus levels vs placebo: FIG. 4; for weight change in grams between days 7 and 13 post-infection: FIG. 3B
Procedure: The agents used in this experiment were compound A (the compound of formula I, where A is NH2 and B is H as the HCL salt) and ribavirin. Compound A was administered IM at 150 mg/kg/day and 300 mg/kg/day, each in a volume of 0.05 ml saline and ribavirin was administered IP at 75 mg/kg/day and 50 mg/kg/day, each in a volume of 0.1 ml saline. IM or IP administration of the daily dose was accomplished in two IM/IP injections of one-half the daily dose each. Mice were administered the first dose of Compound A and ribavirin 4 hours prior to infection with Zika virus and continued the treatment for 8 days post-infection.
In this experiment, Zika virus (Malaysia, strain P 6-740) was administered at a challenge dose of 100 CCID50 (10^3 pfu) per mouse via subcutaneous injection in a 0.1 ml volume.
Mice were monitored for survival 28 days post-virus challenge. Weight change for individual mice were taken on day 0 and every other day through the end of the experiments. Mice were observed daily for signs of disease including conjunctivitis, hunching, and limb weakness or paralysis.
For Zika virus infection and antiviral treatment studies, mice were randomly assigned to groups of 10 animals each. A 10^-3 dilution (10^4.0 pfu/mL) of the virus was prepared in MEM. Mice were challenged s.c. with 0.1 mL of the diluted virus (˜10^3.0 pfu/animal). All compound dosages were based on an average mouse weight of 22 g. Compounds were prepared in sterile saline less than 18 hours prior to initial administration in mice and stored at 4° C. for the duration of the study. Compound A was administered i.m., twice daily (bid) at 300 or 150 mg/kg/d. Ribavirin was given i.p., bid at 75 or 50 mg/kg/d. Treatments began 4 hours prior to virus challenge and continued for 8 days. The identity of the treatment groups was blinded to the technician administering treatments. Mortality was observed twice daily for 28 days, and the weight of each mouse was recorded on day 0 and then every other day from 1-19 days post-virus infection (dpi). Mice were humanely euthanized if they could no longer right themselves or were unresponsive to stimuli.
Fifty to 100 mg of freshly isolated tissue was ground with a pestle in 1 mL TRI Reagent (Sigma-Aldrich, St. Louis, MO) and total RNA was extracted. For the extraction of viral RNA from liquid samples, QlAamp Viral RNA Mini Spin kit was used according to the manufactures instructions (Qiagen, Valencia, CA). Extracted RNA was eluted with nuclease-free water and was amplified by a quantitative real-time RT-PCR using the Logix Smart Zika Test developed by Co-Diagnostics, Inc. (Bountiful, UT). Five μL of the master mix containing a set of primers and Rapid Probe, labeled with a FAM fluorophore and DABCYL quencher, was mixed with 2-5 μL of RNA and an appropriate volume of water for a final reaction volume of 10 μl. RNA was first reverse transcribed for 10 minutes at 55° C., followed by strand separation by heating to 95° C. for 20 seconds. The PCR reaction consisted of 40 cycles at 95° C. for 1 second and 55° C. for 20 seconds. A standard curve was generated with a synthetic RNA spanning the region of amplification and it was used to calculate the number of genome equivalents of the unknown samples.

Cl.Nc1ncnc2c([C@@H]3N[C@H](CO)[C@@H](O)[C@H]3O)c[nH]c12 [Compound A]
relative virus levels vs placebo (150 mg/kg/day IM (group 3)): decreased viral levels in a statistically significant manner
survival (150 mg/kg/day IM bid x 8 days, begun -4 h (group 3)): all died by day 27 post-infection
mortality curve vs placebo (150 mg/kg/day IM bid x 8 days, begun -4 h (group 3), p<0.001): delayed the mortality curve
percent weight change (150 mg/kg/day IM, Zika infected (group 3), FIG. 3A): modest weight reduction starting around day 15 post-infection
weight change in grams between days 7 and 13 post-infection (150 mg/kg/day IM): weight change similar to that seen in normal controls
morbidity in surviving mice 28 days post-infection (300 mg/kg/day IM (group 1)): no morbidity was observed
weight change in grams between days 7 and 13 post-infection (300 mg/kg/day IM (group 1)): weight change similar to that seen in normal controls
relative virus levels vs placebo (300 mg/kg/day IM (group 1)): decreased viral levels in a statistically significant manner
mice survived to day 28 post-infection (300 mg/kg/day IM bid x 8 days, begun -4 h (group 1), p<0.0001 vs placebo): 7/8
morbidity or mortality at day 28 in sham-infected mice (300 mg/kg/day IM bid x 8 days, sham infection (group 2)): No morbidity or mortality
percent weight change (300 mg/kg/day IM, Zika infected (group 1), FIG. 3A): weight change similar to that seen in normal controls
percent weight change in sham-infected mice (300 mg/kg/day IM, sham infection (group 2), FIG. 3A): weight change similar to that seen in normal controls
